According to the kinase profiling compilation of Christmann-Franck et al. (2016):

What was measured:
Assay in all cases: KINOMEscan competition binding
Conditions in all cases: compound 1.0 µM
FLT3 (human) = FLT3 (human) (UniProt P36888)
MAPK12 (human) = MAPK12 (human) (UniProt P53778)
FGFR4 (human) = FGFR4 (human) (UniProt P22455)
MYO3B (human) = MYO3B (human) (UniProt Q8WXR4)
CAMK4 (human) = CAMK4 (human) (UniProt Q16566)
[1] = test system: FLT3 (human), P36888 [D835H]
BRAF (human) = BRAF (human) (UniProt P15056)
RPS6KA2 KD2 (human) = RPS6KA2 KD2 (human) (UniProt Q15349)
CHEK2 (human) = CHEK2 (human) (UniProt O96017)
PTK2B (human) = PTK2B (human) (UniProt Q14289)
CDK19 (human) = CDK19 (human) (UniProt Q9BWU1)
GSK3A (human) = GSK3A (human) (UniProt P49840)
GSK3A (human), sequence (P49840 whole entry, looked up): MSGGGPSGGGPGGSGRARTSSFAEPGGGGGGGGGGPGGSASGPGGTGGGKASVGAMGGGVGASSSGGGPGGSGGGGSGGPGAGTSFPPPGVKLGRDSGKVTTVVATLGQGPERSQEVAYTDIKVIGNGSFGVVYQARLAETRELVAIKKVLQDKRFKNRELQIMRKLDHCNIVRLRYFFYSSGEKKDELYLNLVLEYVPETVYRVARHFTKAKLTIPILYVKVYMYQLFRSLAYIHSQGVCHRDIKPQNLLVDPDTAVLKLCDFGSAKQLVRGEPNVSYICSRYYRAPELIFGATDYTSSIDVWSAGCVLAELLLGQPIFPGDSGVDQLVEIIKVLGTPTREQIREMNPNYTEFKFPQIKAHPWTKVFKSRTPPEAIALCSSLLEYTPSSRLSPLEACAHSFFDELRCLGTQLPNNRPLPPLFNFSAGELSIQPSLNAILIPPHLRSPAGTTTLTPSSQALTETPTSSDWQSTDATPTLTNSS

TLK1 (human) = TLK1 (human) (UniProt Q9UKI8)
HIPK1 (human) = HIPK1 (human) (UniProt Q86Z02)
HIPK1 (human), sequence (Q86Z02 whole entry, looked up): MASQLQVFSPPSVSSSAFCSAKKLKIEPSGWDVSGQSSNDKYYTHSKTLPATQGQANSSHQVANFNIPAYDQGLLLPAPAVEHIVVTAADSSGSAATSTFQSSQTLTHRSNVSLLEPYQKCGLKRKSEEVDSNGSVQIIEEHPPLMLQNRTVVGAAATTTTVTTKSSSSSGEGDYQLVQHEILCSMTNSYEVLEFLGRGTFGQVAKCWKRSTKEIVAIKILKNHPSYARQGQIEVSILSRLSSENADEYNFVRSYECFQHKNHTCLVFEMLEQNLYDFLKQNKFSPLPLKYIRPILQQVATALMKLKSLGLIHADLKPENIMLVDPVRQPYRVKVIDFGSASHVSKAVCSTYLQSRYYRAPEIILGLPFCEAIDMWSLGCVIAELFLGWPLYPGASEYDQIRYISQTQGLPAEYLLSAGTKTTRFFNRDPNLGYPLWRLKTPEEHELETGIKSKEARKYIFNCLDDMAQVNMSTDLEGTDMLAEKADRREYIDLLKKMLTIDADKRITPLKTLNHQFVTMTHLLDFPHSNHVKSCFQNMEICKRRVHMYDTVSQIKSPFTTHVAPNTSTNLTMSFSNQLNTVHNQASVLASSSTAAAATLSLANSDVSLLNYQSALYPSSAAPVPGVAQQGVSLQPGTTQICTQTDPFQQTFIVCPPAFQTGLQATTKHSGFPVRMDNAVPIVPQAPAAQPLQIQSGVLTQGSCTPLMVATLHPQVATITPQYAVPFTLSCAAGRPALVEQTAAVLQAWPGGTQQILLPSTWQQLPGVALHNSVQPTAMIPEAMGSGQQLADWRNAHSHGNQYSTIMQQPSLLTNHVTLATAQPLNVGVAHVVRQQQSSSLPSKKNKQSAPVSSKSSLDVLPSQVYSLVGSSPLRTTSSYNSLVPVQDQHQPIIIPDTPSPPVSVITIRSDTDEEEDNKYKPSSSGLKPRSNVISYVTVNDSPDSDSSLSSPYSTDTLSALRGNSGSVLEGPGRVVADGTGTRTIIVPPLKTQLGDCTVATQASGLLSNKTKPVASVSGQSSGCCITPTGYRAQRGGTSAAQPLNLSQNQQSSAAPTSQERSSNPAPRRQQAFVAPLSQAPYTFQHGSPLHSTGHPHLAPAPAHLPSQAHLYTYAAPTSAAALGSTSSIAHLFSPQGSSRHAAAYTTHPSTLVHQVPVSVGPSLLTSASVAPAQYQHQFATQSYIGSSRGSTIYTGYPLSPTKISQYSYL

STK16 (human) = STK16 (human) (UniProt O75716)
NEK5 (human) = NEK5 (human) (UniProt Q6P3R8)
NEK5 (human), sequence (Q6P3R8 whole entry, looked up): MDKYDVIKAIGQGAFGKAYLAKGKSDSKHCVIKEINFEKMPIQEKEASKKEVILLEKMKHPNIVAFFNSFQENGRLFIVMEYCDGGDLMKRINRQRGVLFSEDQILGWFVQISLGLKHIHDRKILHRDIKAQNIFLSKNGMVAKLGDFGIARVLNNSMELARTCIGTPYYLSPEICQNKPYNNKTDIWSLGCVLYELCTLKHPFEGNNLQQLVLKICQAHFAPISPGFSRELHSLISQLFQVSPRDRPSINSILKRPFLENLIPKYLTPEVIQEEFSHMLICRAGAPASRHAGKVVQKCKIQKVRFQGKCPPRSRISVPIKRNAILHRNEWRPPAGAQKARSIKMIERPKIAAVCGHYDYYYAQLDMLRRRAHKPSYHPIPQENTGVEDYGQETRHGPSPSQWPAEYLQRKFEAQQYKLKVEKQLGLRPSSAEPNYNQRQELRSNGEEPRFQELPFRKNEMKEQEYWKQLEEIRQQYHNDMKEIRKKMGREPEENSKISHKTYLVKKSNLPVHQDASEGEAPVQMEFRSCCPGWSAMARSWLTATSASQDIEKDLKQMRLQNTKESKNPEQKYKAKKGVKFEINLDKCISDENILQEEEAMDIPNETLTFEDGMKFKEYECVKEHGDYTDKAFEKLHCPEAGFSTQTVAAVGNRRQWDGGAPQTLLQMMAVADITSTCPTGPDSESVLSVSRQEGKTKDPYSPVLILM

PRKAA1 (human) = PRKAA1 (human) (UniProt Q13131)
CDC42BPA (human) = CDC42BPA (human) (UniProt Q5VT25)
PLK2 (human) = PLK2 (human) (UniProt Q9NYY3)
MAPK1 (human) = MAPK1 (human) (UniProt P28482)
HIPK3 (human) = HIPK3 (human) (UniProt Q9H422)
MAPK13 (human) = MAPK13 (human) (UniProt O15264)
RPS6KA5 KD1 (human) = RPS6KA5 KD1 (human) (UniProt O75582)
DDR2 (human) = DDR2 (human) (UniProt Q16832)
CDK9 (human) = CDK9 (human) (UniProt P50750)
BRSK1 (human) = BRSK1 (human) (UniProt Q8TDC3)
ACVR2B (human) = ACVR2B (human) (UniProt Q13705)
KIT (human) = KIT (human) (UniProt P10721)
CLK3 (human) = CLK3 (human) (UniProt P49761)
HUNK (human) = HUNK (human) (UniProt P57058)
EPHA8 (human) = EPHA8 (human) (UniProt P29322)
TXK (human) = TXK (human) (UniProt P42681)
PKN2 (human) = PKN2 (human) (UniProt Q16513)
STK25 (human) = STK25 (human) (UniProt O00506)
EPHB3 (human) = EPHB3 (human) (UniProt P54753)
EPHB2 (human) = EPHB2 (human) (UniProt P29323)
EPHB2 (human), sequence (P29323 whole entry, looked up): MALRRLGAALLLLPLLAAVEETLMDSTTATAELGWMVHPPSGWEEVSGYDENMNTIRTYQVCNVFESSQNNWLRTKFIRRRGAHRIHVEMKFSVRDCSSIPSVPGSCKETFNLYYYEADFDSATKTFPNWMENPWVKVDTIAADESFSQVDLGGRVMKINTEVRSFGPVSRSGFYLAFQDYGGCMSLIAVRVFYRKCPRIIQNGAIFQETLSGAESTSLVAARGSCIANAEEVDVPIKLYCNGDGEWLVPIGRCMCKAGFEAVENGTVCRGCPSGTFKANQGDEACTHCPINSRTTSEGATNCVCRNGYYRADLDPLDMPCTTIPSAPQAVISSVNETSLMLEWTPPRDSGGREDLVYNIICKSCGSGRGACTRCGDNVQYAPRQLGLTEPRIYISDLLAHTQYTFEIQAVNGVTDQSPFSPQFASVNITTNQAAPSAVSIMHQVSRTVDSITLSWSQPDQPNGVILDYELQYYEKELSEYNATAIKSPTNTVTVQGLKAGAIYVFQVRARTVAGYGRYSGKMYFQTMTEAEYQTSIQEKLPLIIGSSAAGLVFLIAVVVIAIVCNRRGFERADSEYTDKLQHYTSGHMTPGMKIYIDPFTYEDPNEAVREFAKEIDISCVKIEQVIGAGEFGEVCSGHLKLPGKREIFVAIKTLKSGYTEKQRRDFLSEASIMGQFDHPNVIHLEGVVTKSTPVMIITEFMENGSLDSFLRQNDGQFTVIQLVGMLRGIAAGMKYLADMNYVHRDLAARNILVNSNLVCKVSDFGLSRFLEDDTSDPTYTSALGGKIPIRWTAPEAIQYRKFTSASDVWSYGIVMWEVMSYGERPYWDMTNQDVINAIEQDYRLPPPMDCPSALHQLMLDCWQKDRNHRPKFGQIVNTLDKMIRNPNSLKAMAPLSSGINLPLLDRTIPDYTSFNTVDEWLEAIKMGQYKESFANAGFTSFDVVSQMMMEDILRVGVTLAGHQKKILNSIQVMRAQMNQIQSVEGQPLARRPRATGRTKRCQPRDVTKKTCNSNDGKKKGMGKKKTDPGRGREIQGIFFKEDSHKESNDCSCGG

STK32C (human) = STK32C (human) (UniProt Q86UX6)
[2] = target: JAK1 JH2 pseudokinase (human) (UniProt P23458)
TSSK1B (human) = TSSK1B (human) (UniProt Q9BXA7)
TSSK1B (human), sequence (Q9BXA7 whole entry, looked up): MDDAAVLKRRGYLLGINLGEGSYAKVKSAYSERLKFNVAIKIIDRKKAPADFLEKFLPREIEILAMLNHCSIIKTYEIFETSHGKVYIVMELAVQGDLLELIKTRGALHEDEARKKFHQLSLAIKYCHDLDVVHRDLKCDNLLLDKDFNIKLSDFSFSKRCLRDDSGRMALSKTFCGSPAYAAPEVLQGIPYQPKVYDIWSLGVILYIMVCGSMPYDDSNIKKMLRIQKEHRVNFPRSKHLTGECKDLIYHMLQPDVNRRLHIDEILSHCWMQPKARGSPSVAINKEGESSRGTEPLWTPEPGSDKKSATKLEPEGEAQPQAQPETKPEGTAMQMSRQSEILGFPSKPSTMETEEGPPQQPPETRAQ

MAPK3 (human) = MAPK3 (human) (UniProt P27361)
MAPK3 (human), sequence (P27361 whole entry, looked up): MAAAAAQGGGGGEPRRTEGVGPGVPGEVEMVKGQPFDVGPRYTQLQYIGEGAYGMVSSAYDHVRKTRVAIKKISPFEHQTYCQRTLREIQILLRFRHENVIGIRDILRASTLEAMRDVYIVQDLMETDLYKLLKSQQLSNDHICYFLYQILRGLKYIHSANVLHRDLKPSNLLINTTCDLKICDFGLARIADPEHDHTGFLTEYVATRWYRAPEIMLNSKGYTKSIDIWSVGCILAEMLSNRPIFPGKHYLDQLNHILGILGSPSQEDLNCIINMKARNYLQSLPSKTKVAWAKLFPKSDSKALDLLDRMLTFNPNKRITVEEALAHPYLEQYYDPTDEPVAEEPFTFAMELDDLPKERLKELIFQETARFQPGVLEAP

FGFR4 (human), sequence (P22455 whole entry, looked up): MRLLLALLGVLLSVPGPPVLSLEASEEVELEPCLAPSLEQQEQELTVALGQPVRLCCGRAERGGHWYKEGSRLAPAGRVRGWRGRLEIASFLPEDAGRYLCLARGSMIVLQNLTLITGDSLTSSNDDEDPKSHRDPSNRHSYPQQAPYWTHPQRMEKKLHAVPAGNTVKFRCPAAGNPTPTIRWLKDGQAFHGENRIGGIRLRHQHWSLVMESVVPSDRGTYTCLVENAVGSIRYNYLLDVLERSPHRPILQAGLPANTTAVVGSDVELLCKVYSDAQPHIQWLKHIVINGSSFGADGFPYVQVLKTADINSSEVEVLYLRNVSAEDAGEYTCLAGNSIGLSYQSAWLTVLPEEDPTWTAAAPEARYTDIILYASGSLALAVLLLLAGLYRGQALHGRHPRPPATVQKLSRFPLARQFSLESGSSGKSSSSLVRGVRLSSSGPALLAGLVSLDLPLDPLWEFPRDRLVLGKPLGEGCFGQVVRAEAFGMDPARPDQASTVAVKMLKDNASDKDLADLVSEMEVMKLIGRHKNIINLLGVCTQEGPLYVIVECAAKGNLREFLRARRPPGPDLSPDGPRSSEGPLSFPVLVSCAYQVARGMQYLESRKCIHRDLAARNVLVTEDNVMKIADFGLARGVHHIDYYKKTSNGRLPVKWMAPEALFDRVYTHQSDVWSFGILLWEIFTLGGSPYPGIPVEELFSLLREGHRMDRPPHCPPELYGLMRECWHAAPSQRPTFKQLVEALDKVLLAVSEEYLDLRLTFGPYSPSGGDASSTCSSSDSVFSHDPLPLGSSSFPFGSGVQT

inhibition of binding (FLT3 (human)): 8% | inhibition of binding (MAPK12 (human)): 17% | inhibition of binding (FGFR4 (human)): 0% | inhibition of binding (MYO3B (human)): 1% | inhibition of binding (CAMK4 (human)): 50% | inhibition of binding [1]: 2% | inhibition of binding (BRAF (human)): 18% | inhibition of binding (RPS6KA2 KD2 (human)): 16% | inhibition of binding (CHEK2 (human)): 0% | inhibition of binding (PTK2B (human)): 0% | inhibition of binding (CDK19 (human)): 0% | inhibition of binding (GSK3A (human)): 42% | inhibition of binding (TLK1 (human)): 12% | inhibition of binding (HIPK1 (human)): 0% | inhibition of binding (STK16 (human)): 0% | inhibition of binding (NEK5 (human)): 0% | inhibition of binding (PRKAA1 (human)): 3% | inhibition of binding (CDC42BPA (human)): 0% | inhibition of binding (PLK2 (human)): 0% | inhibition of binding (MAPK1 (human)): 0% | inhibition of binding (HIPK3 (human)): 0% | inhibition of binding (MAPK13 (human)): 0% | inhibition of binding (RPS6KA5 KD1 (human)): 0% | inhibition of binding (DDR2 (human)): 19% | inhibition of binding (CDK9 (human)): 12% | inhibition of binding (BRSK1 (human)): 0% | inhibition of binding (ACVR2B (human)): 0% | inhibition of binding (KIT (human)): 0% | inhibition of binding (CLK3 (human)): 29% | inhibition of binding (HUNK (human)): 18% | inhibition of binding (EPHA8 (human)): 0% | inhibition of binding (TXK (human)): 0% | inhibition of binding (PKN2 (human)): 0% | inhibition of binding (STK25 (human)): 0% | inhibition of binding (EPHB3 (human)): 4% | inhibition of binding (EPHB2 (human)): 0% | inhibition of binding (STK32C (human)): 0% | inhibition of binding [2]: 0% | inhibition of binding (TSSK1B (human)): 5% | inhibition of binding (MAPK3 (human)): 1%
SMILES: Nc1cc(C(F)(F)F)c(-c2cc(N3CCOCC3)nc(N3CCOCC3)n2)cn1
